Source: patent US11076595B2, “1-(n,n-disubstituted carbamoyl) 4-(substituted sulfonyl)triazolin-5-one derivative, 4-(n,n-disubstituted carbamoyl) 1-(substituted sulfonyl)triazolin-5-one derivative, and herbicide containing said derivative as active ingredient” (HOKKO CHEMICAL INDUSTRY CO., LTD., priority 2017, dated 2021)

Tests used:
Test in all cases: Test Example 11: herbicidal effect test by soil treatment in paddy field
Format in all cases: in vivo
Conditions in all cases: 120 g/10a active ingredient, 14 days after treatment
[1] = system: Echinochloa crus-galli
Source text: (§1) A Wagner pot having an area of 1/10000 are was filled with paddy field soil and after adding water, a chemical fertilizer (N:P:K=17:17:17) was mixed, followed by puddling. Thereafter, 30 grains of each of Echinochloa crus-galli, broad-leaved weed (Lindernia pyxidaria, Monochoria vaginalis) and Scirpus juncoides seeds were sown to a depth of 0 to 1 cm. Immediately after the sowing, the pot was flooded, and the depth of water was kept at about 3 cm. The pot was subsequently managed in a glass greenhouse. Just after that, an emulsifiable concentrate prepared according to Formulation Example 15 by using the compound shown in Table 9 below was diluted with water, and a predetermined amount of the water-diluted formulation was added dropwise. The application rate of the active ingredient, by conversion, corresponded to 120 g per 10 are.
(§2) This test was performed with two replications per one formulation concentration plot, and 14 days after the formulation treatments, the weed suppression rate (%) was determined according to the following equation (Math. 2). Weed suppression rate (%)=(1−average dry weight (g) of plants in treated plots/average dry weight (g) of plants in untreated plots)×100 [Math. 2]

[2] = system: Lindernia pyxidaria
Source text: as §1, §2

[3] = system: Monochoria vaginalis
Source text: as §1, §2

[4] = system: Scirpus juncoides
Source text: as §1, §2

Structure (SMILES) | Weed suppression rate (%) Echinochloa crus-galli [1] [%] | Weed suppression rate (%) Lindemia pyxidaria [2] [%] | Weed suppression rate (%) Monochoria vaginalis [3] [%] | Weed suppression rate (%) Scirpus juncoides [4] [%]
CC(C)N(C(=O)n1cnn(S(=O)(=O)CCl)c1=O)c1ccc(C(F)(F)F)cc1F [Compound 11-126] | 100 | 100 | 60 | 30
Cc1cc(F)ccc1N(C(=O)n1cnn(S(=O)(=O)c2ccccc2F)c1=O)C(C)C [Compound 11-415] | 80 | 70 | 70 | 30
CC(C)N(C(=O)n1cnn(S(=O)(=O)c2cccc(F)c2)c1=O)c1ccc(F)cc1Cl [Compound 11-445] | 100 | 70 | 60 | 100
Cc1cc(Cl)ccc1N(C(=O)n1cnn(S(=O)(=O)c2ccc(F)cc2)c1=O)C(C)C [Compound 11-490] | 90 | 80 | 80 | 90
Cc1cc(F)ccc1N(C(=O)n1cnn(S(=O)(=O)c2ccccc2Cl)c1=O)C(C)C [Compound 11-525] | 60 | 90 | 90 | 60
Cc1cc(Cl)ccc1N(C(=O)n1cnn(S(=O)(=O)c2ccccc2Cl)c1=O)C(C)C [Compound 11-527] | 90 | 80 | 80 | 90
CC(C)N(C(=O)n1cnn(S(=O)(=O)c2cccc(Cl)c2)c1=O)c1ccccc1 [Compound 11-539] | 80 | 90 | 40 | 40
CC(C)N(C(=O)n1cnn(S(=O)(=O)c2cccc(Cl)c2)c1=O)c1cccc(F)c1F [Compound 11-549] | 80 | 90 | 100 | 100
CC(C)N(C(=O)n1cnn(S(=O)(=O)c2cccc(Cl)c2)c1=O)c1ccc(Cl)cn1 [Compound 11-574] | 90 | 80 | 40 | 50
CCN(CC)C(=O)n1cnn(S(=O)(=O)c2ccc(Cl)cc2)c1=O [Compound 11-576] | 40 | 0 | 0 | 0
CC(C)N(C(=O)n1cnn(S(=O)(=O)c2ccc(Cl)cc2)c1=O)c1ccccc1 [Compound 11-577] | 40 | 60 | 0 | 0
CC(C)N(C(=O)n1cnn(S(=O)(=O)c2ccc(Cl)cc2)c1=O)c1ccccc1F [Compound 11-578] | 90 | 80 | 80 | 90
CC(C)N(C(=O)n1cnn(S(=O)(=O)c2ccc(Cl)cc2)c1=O)c1c(F)c(F)cc(F)c1F [Compound 11-593] | 80 | 70 | 60 | 30
CC(C)N(C(=O)n1cnn(S(=O)(=O)c2ccc(Cl)cc2)c1=O)c1ccc(F)cc1Cl [Compound 11-595] | 90 | 90 | 70 | 60
Cc1ccc(S(=O)(=O)n2ncn(C(=O)N(c3ccc(Cl)cc3Br)C(C)C)c2=O)cc1 [Compound 11-649] | 90 | 70 | 60 | 60
Cc1ccc(S(=O)(=O)n2ncn(C(=O)N(c3ccc(Cl)cc3C)C(C)C)c2=O)cc1 [Compound 11-652] | 90 | 80 | 80 | 90
CC(C)N(C(=O)n1cnn(S(=O)(=O)c2ccc(C(C)(C)C)cc2)c1=O)c1ccc(Br)cc1Cl [Compound 11-693] | 80 | 60 | 60 | 60
CC(C)N(C(=O)n1cnn(S(=O)(=O)c2ccc(C(C)(C)C)cc2)c1=O)c1ccc(C(F)(F)F)cc1F [Compound 11-699] | 90 | 90 | 70 | 30
CC(C)N(C(=O)n1cnn(S(=O)(=O)c2cccc(C(F)(F)F)c2)c1=O)c1ccc(F)c(F)c1F [Compound 11-726] | 100 | 90 | 30 | 30
CC(C)N(C(=O)n1cnn(S(=O)(=O)c2cccc(C(F)(F)F)c2)c1=O)c1c(F)cc(F)cc1F [Compound 11-727] | 90 | 80 | 60 | 80
CC(C)N(C(=O)n1cnn(S(=O)(=O)c2ccc(C(F)(F)F)cc2)c1=O)c1ccc(F)cc1F [Compound 11-749] | 60 | 70 | 70 | 70
CC(C)N(C(=O)n1cnn(S(=O)(=O)c2c(F)cccc2F)c1=O)c1ccc(F)cc1Cl [Compound 11-780] | 60 | 100 | 60 | 100
Cc1ccc(N(C(=O)n2cnn(S(=O)(=O)c3c(F)cccc3F)c2=O)C(C)C)c(F)c1 [Compound 11-787] | 90 | 80 | 80 | 90
CC(C)N(C(=O)n1cnn(S(=O)(=O)c2c(F)cccc2F)c1=O)c1ccc(C(F)(F)F)cc1F [Compound 11-790] | 80 | 90 | 30 | 90
CC(C)N(C(=O)n1cnn(S(=O)(=O)c2c(F)c(F)c(F)c(F)c2F)c1=O)c1ccc(F)c(F)c1F [Compound 11-814] | 70 | 90 | 70 | 30
Cc1cc(C)c(S(=O)(=O)n2ncn(C(=O)N(c3c(F)cccc3F)C(C)C)c2=O)c(C)c1 [Compound 11-865] | 80 | 70 | 70 | 70
Cc1cc(C)c(S(=O)(=O)n2ncn(C(=O)N(c3ccc(Cl)cc3C)C(C)C)c2=O)c(C)c1 [Compound 11-878] | 90 | 80 | 80 | 90
Cc1cc(C)c(S(=O)(=O)n2ncn(C(=O)N(c3ccc(C(F)(F)F)cc3F)C(C)C)c2=O)c(C)c1 [Compound 11-880] | 80 | 80 | 100 | 30
